We go through 35 compounds from patent US8394825B2, “Compound” (Sterix Limited, priority 2007, dated 2013).

Read-outs that look alike come from different tables or passages of the source.

One series concerns DU145 cells. Nature of the series: Antiproliferative assay in DU145 cells, WST-1 cell proliferation assay, 96 hours (GI50). It counts as cell-based. As to the method: Antiproliferative assays. DU145 cells were seeded into 96 well microtiter plates (5000 cells/well) and treated with […] of compounds or with vehicle control. At 96 hours post-treatment, live cell counts were determined by WST-1 cell proliferation assay (Roche, Penzberg, Germany), as per manufacturer's instructions. Viability results were expressed as a percentage of mean control values resulting in the calculation of the 50% growth inhibition (GI50). All experiments were performed in triplicate.
For orientation: Tetrazolium dyes change colour on reduction, which living cells bring about.

The mark [1] stands for this setting: Homo sapiens, DU-145, 96 hours post-treatment, triplicate.
[2] abbreviates: 96 hours post-treatment, triplicate, read-out: DU-145 GI50.
Where [3] appears, read: 96 hours post-treatment, 50% growth inhibition, read-out: DU-145 GI50.
Setting [4] is: Homo sapiens, DU-145, 96 hours post-treatment, 50% growth inhibition.

What is called GI50 is the concentration that inhibits growth by half. The term melting point denotes the temperature, or range, at which the solid turns liquid. Compound `COc1cc2c(cc1OCc1ccccc1)CCN(Cc1ccccc1)C2` [compound 2, 2-Benzyl-6-benzyloxy-7-methoxy-1,2,3,4-tetrahydroisoquinoline] yielded a melting point of 97 to 98 °C. Moreover, in the series on DU145 cells (setting [1]), the GI50 is 50 to 100 µM.

As to `COc1ccc(CN2CCc3cc(OCc4ccccc4)c(OC)cc3C2)cc1` [compound 3, 6-Benzyloxy-7-methoxy-2-(4-methoxybenzyl)-1,2,3,4-tetrahydroisoquinoline], the melting point was 96 to 97 °C. Moreover, the GI50 with DU145 cells (setting [1]) lay in the range of 50 to 100 µM. For `COc1cccc(CN2CCc3cc(OCc4ccccc4)c(OC)cc3C2)c1` [compound 4, 6-Benzyloxy-7-methoxy-2-(3-methoxybenzyl)-1,2,3,4-tetrahydroisoquinoline] the same measures were 71 to 72 °C and 50 to 100 µM.

As to `COc1ccccc1CN1CCc2cc(OCc3ccccc3)c(OC)cc2C1` [compound 5, 6-Benzyloxy-7-methoxy-2-(2-methoxybenzyl)-1,2,3,4-tetrahydroisoquinoline], the melting point is 85 to 86 °C. In the series with DU145 cells (setting [1]), this compound returned a GI50 of 10 to 50 µM. Compound `COc1cc(CN2CCc3cc(OCc4ccccc4)c(OC)cc3C2)cc(OC)c1` [compound 6, 6-Benzyloxy-2-(3,5-dimethoxybenzyl)-7-methoxy-1,2,3,4-tetrahydroisoquinoline] registered a melting point of 95 to 96 °C. The compound further yielded a GI50 with DU145 cells (setting [1]) of over 100 µM.

As to `COc1cc2c(cc1OCc1ccccc1)CCN(Cc1cccc(C)c1)C2` [compound 7, 6-Benzyloxy-7-methoxy-2-(3-methylbenzyl)-1,2,3,4-tetrahydroisoquinoline], the melting point was in the range of 81 to 82 °C. In the series on DU145 cells (setting [1]), this compound returned a GI50 of over 100 µM. For `COc1cc2c(cc1OCc1ccccc1)CCN(Cc1cccc(Oc3ccccc3)c1)C2` [compound 8, 6-Benzyloxy-7-methoxy-2-(3-phenoxybenzyl)-1,2,3,4-tetrahydroisoquinoline] the same measures were 111 to 112 °C and over 100 µM. In the same order, the values of `COc1cc(OC)c(OC)cc1CN1CCc2cc(OCc3ccccc3)c(OC)cc2C1` [compound 17, 6-Benzyloxy-7-methoxy-2-(2,4,5-trimethoxybenzyl)-1,2,3,4-tetrahydroisoquinoline] are 110 to 111 °C and 10 to 50 µM. With `COc1cc2c(cc1OCc1ccccc1)CCN(Cc1cc(OC)c(OC)c(OC)c1)C2` [compound 19, 6-Benzyloxy-7-methoxy-2-(3,4,5-trimethoxybenzyl)-1,2,3,4-tetrahydroisoquinoline], the melting point lay in the range of 144 to 145 °C. Further, the GI50 in the series on DU145 cells (setting [1]) lay in the range of 10 to 50 µM. For `COc1cc2c(cc1OCc1ccccc1)CCN(Cc1cccc(OC)c1OC)C2` [compound 20, 6-Benzyloxy-7-methoxy-2-(2,3-dimethoxybenzyl)-1,2,3,4-tetrahydroisoquinoline] the same measures were 106 to 107 °C and 10 to 50 µM. For `COc1cc2c(cc1OCc1ccccc1)CCN(Cc1cccc(F)c1)C2` [compound 22, 6-Benzyloxy-2-(3-fluorobenzyl)-7-methoxy-1,2,3,4-tetrahydroisoquinoline] the same measures were 77 to 79.5 °C and over 100 µM. For the compound `COc1ccccc1CN1CCc2cc(OS(N)(=O)=O)c(OC)cc2C1` [compound 165, 7-Methoxy-2-(2-methoxybenzyl)-6-O-sulfamoyl-3,4-dihydro-2H-isoquinoline], the GI50 in the series with DU145 cells (setting [2]) is over 100 µM. Turning to `COc1cccc(CN2CCc3cc(OS(N)(=O)=O)c(OC)cc3C2)c1` [compound 166, 7-Methoxy-2-(3-methoxybenzyl)-6-O-sulfamoyl-3,4-dihydro-2H-isoquinoline], the GI50 with DU145 cells (setting [2]) was over 100 µM. As to `COc1cc(CN2CCc3cc(OS(N)(=O)=O)c(OC)cc3C2=O)cc(OC)c1` [compound 167, 2-(3,5-Dimethoxybenzyl)-7-methoxy-6-O-sulfamoyl-3,4-dihydro-2H-isoquinolin-1-one], the GI50 in the series with DU145 cells (setting [2]) is over 100 µM.

On to `COc1cc2c(cc1OS(N)(=O)=O)CCN(Cc1cc(OC)c(OC)c(OC)c1)C2=O` [compound 168, 7-methoxy-6-O-sulfamoyl-2-(3,4,5-trimethoxybenzyl)-3,4-dihydroisoquinolin-1 (2H)-one], for which the GI50 in the series on DU145 cells (setting [2]) was over 100 µM. In the series on DU145 cells (setting [1]), `COc1cc2c(cc1OCc1ccccc1)CCN(S(=O)(=O)c1cccc(Cl)c1)C2` [compound 173, 6-Benzyloxy-2-(3-chloro-benzenesulfonyl)-7-methoxy-1,2,3,4-tetrahydroisoquinoline] yielded a GI50 of over 100 µM. For `COc1cc2c(cc1O[Si](C(C)C)(C(C)C)C(C)C)CCN(S(=O)(=O)c1cccc(C#N)c1)C2` [compound 174, 2-(3-Cyano-benzenesulfonyl)-6-triisopropylsilyloxy-7-methoxy-1,2,3,4-tetrahydroisoquinoline], in the series on DU145 cells (setting [1]), the GI50 is over 100 µM.

On to `COc1cc2c(cc1OS(N)(=O)=O)CCN(S(=O)(=O)c1cccc(C#N)c1)C2` [compound 187, 2-(3-Cyano-benzenesulfonyl)-7-methoxy-6-O-sulfamoyl-1,2,3,4-tetrahydroisoquinoline], for which, in the series on DU145 cells (setting [2]), the GI50 was over 100 µM. For `COc1cccc(S(=O)(=O)N2CCc3cc(OS(N)(=O)=O)c(OC)cc3C2)c1` [compound 188, 7-Methoxy-2-(3-methoxy-benzenesulfonyl)-6-O-sulfamoyl-1,2,3,4-tetrahydroisoquinoline], in the series on DU145 cells (setting [2]), the GI50 lay in the range of 50 to 100 µM.

On to `COc1cc2c(cc1OS(N)(=O)=O)CCN(S(=O)(=O)c1cccc(C(F)(F)F)c1)C2` [compound 189, 7-Methoxy-6-O-sulfamoyl-2-(3-trifluoromethyl-benzenesulfonyl)-1,2,3,4-tetrahydroisoquinoline], for which, in the series on DU145 cells (setting [2]), the GI50 lay within 10 to 50 µM. `COc1cc2c(cc1OS(N)(=O)=O)CCN(S(=O)(=O)c1cccc(Cl)c1)C2` [compound 190, 2-(3-Chloro-benzenesulfonyl)-7-methoxy-6-O-sulfamoyl-1,2,3,4-tetrahydroisoquinoline]: the 50% growth inhibitory concentration (GI50) in the series on DU145 cells (setting [2]) was 10 to 50 µM. On to `COc1cc2c(cc1OS(N)(=O)=O)CCN(S(=O)(=O)c1cccc(C)c1)C2` [compound 191, 7-Methoxy-6-O-sulfamoyl-2-(toluene-3-sulfonyl)-1,2,3,4-tetrahydroisoquinoline], for which the GI50 with DU145 cells (setting [2]) lay in the range of 10 to 50 µM.

Turning to `COc1cc2c(cc1OS(N)(=O)=O)CCN(S(=O)(=O)c1cccc(OC(F)(F)F)c1)C2` [compound 192, 7-Methoxy-6-O-sulfamoyl-2-(3-trifluoromethoxy-benzenesulfonyl)-1,2,3,4-tetrahydroisoquinoline], in the series with DU145 cells (setting [2]), the GI50 fell in the range of 50 to 100 µM. Same read-out and setting: as for `COc1cc2c(cc1OS(N)(=O)=O)CCN(S(=O)(=O)c1ccccc1C#N)C2` [compound 193, 2-(2-Cyano-benzenesulfonyl)-7-methoxy-6-O-sulfamoyl-1,2,3,4-tetrahydroisoquinoline], the figure is under 10 µM; as for `COc1cc2c(cc1OS(N)(=O)=O)CCN(S(=O)(=O)c1ccccc1OC)C2` [compound 194, 7-Methoxy-2-(2-methoxy-benzenesulfonyl)-6-O-sulfamoyl-1,2,3,4-tetrahydroisoquinoline], over 100 µM. As for `COc1ccc(S(=O)(=O)N2CCc3cc(OS(N)(=O)=O)c(OC)cc3C2)cc1` [compound 195, 7-Methoxy-2-(4-methoxy-benzenesulfonyl)-6-O-sulfamoyl-1,2,3,4-tetrahydroisoquinoline], in the series with DU145 cells (setting [2]), the GI50 is over 100 µM. With `COc1cc2c(cc1OS(N)(=O)=O)CCN(S(=O)(=O)c1ccccc1OC)C2=O` [compound 204, 7-Methoxy-2-(2-methoxy-benzenesulfonyl)-6-O-sulfamoyl-3,4-dihydro-2H-isoquinolin-1-one], in the series with DU145 cells (setting [3]), the GI50 was over 100 µM.

As to `COc1cccc(S(=O)(=O)N2CCc3cc(OS(N)(=O)=O)c(OC)cc3C2=O)c1` [compound 205, 7-Methoxy-2-(3-methoxy-benzenesulfonyl)-6-O-sulfamoyl-3,4-dihydro-2H-isoquinolin-1-one], the 50% growth inhibitory concentration (GI50) with DU145 cells (setting [3]) was over 100 µM.

Regarding `COc1ccc(S(=O)(=O)N2CCc3cc(OS(N)(=O)=O)c(OC)cc3C2=O)cc1` [compound 206, 7-Methoxy-2-(4-methoxy-benzenesulfonyl)-6-O-sulfamoyl-3,4-dihydro-2H-isoquinolin-1-one], the GI50 in the series with DU145 cells (setting [3]) was over 100 µM. The same measure, in the same setting: in the case of `COc1cc2c(cc1OS(N)(=O)=O)CCN(S(=O)(=O)c1cccc(Cl)c1)C2=O` [compound 207, 2-(3-Chloro-benzenesulfonyl)-7-methoxy-6-O-sulfamoyl-3,4-dihydro-2H-isoquinolin-1-one] it was over 100 µM; in that of `COc1cccc(CN2Cc3cc(OC)c(OS(N)(=O)=O)cc3CC2C)c1` (stereo not shown) [compound 220, 2-(3-Methoxybenzyl)-1,2,3,4-tetrahydro-7-methoxy-3-methylisoquinolin-6-O-sulfamate], under 10 µM. As for `COc1cc(CN2Cc3cc(OC)c(OS(N)(=O)=O)cc3CC2C)cc(OC)c1` (stereo not shown) [compound 221, 2-(3,5-dimethoxy-benzyl)-7-methoxy-3-methyl-1,2,3,4-tetrahydro-isoquinolin-6-O-sulfamate], the GI50 in the series with DU145 cells (setting [3]) is under 10 µM.

As to `COc1cc2c(cc1OS(N)(=O)=O)CC(C)N(Cc1cc(OC)c(OC)c(OC)c1)C2` (stereo not shown) [compound 222, 2-(3,4,5-Trimethoxybenzyl)-1,2,3,4-tetrahydro-7-methoxy-3-methylisoquinolin-6-O-sulfamate], the concentration for 50% growth inhibition (GI50) with DU145 cells (setting [3]) is under 10 µM. In the case of `COc1cccc(CN2Cc3cc(OC)c(OS(N)(=O)=O)cc3CC2(C)C)c1` [compound 230, 2-(3-Methoxybenzyl)-1,2,3,4-tetrahydro-7-methoxy-3,3-dimethylisoquinolin-6-yl sulfamate], the concentration for 50% growth inhibition (GI50) in the series on DU145 cells (setting [4]) is over 100 µM. On the same count and under the same terms, in the case of `COc1cc2c(cc1OS(N)(=O)=O)CC(C)(C)N(Cc1cc(OC)c(OC)c(OC)c1)C2` [compound 231, 2-(3,4,5-Trimethoxybenzyl)-1,2,3,4-tetrahydro-7-methoxy-3,3-dimethylisoquinolin-6-yl sulfamate] it was over 100 µM.
